Values quoted from earlier work as cited in patent US12161733B2, “Chemical conjugates of Evans Blue derivatives and their use as radiotherapy and imaging agents for targeting prostate cancer” (THE UNITED STATES OF AMERICA, AS REPRESENTED BY THE …, priority 2018, dated 2024).

System: prostate cancer patients

In the case of `O=C([O-])CN1CCN(CC(=O)[O-])CCN(CC(=O)NCC2CCC(C(=O)N[C@@H](Cc3ccc4ccccc4c3)C(=O)NCCCC[C@H](NC(=O)N[C@@H](CCC(=O)O)C(=O)O)C(=O)O)CC2)CCN(CC(=O)[O-])CC1.[177Lu+3]` (some centres unmarked) [^177Lu-PSMA-617], the side effects (long-term toxicity unknown) is given as “only stage 1-2 hematologic toxicities and sporadically mild xerostomia and fatigue” and the partial response rates (up to 3 cycles, response limited to as few as several weeks in some patients) is given as 70%-80%.
